Results from patent US5523223A, “Ketoester reductase for conversion of keto acid esters to optically active hydroxy acid esters” (priority 1992, dated 1996).
Entries after “also recorded” stand apart in the source; their conditions may differ. Values belong to the compound of their own block, whether it stands above or below them.

How the values were obtained:
[1] = system: KERed from P. acidovorans; assay: Screening of crude extract for ketoester reductase activity (photometric NAD(P)H decrease); assay type: biochemical, Pseudomonas acidovorans; details: 8 mM ketoester, TEA-NaOH buffer pH 7, mU/mg protein; for NADH dependent specific activity: 0.2 mM NADH
Experimental: (§1) For screening collection strains of the DSM (German Collection of Microorganisms and Cell Cultures, Braunschweig) is cultured in the DSM recommended medium, the cell mass is harvested by centrifugation and disintegrated by wet milling. A permanent deposit of Candida parapsilosis DSM 70125 has been deposited on 29 Mar. 1979 in accordance with the requirements of the Budapest Treaty. The address of the depository is as follows: German Collection of Microorganisms and Cell Cultures, DSM-Mascheroder Weg 1B, Braunschweig, Germany. The supernatant served as the enzyme source (crude extract) and was investigated for ketoester reductase activity. The test was carried out photometrically and the test mixture contained the following components.
(§2) 0.1M triethanoleamine (TEA)-NaOH-Buffer, pH 7
(§3) Limited amounts of the crude extract.
(§4) The NAD(P)H-decrease at 334nm over a period of 1 minute was followed: For activity calculation, an absorption coefficient of […] was used. […] One U (unit) corresponds to the consumption and conversion of 1 μmole of reduced coenzyme per minute.

[2] = system: KERed from R. erythropolis; assay: as above; assay type: biochemical, Rhodococcus erythropolis; details: 0.2 mM NADH, 8 mM ketoester, TEA-NaOH buffer pH 7, mU/mg protein
Experimental: as §1, §2, §3, §4

KERed from Y. cellobiosa = assay: as above; assay type: biochemical, Yarrowinia cellobiosa; details: 8 mM ketoester, TEA-NaOH buffer pH 7, mU/mg protein; for NADH dependent specific activity: 0.2 mM NADH; for NADPH-dependent specific activity: 0.2 mM NADPH
Experimental: as §1, §2, §3, §4

[3] = system: KERed from Candida parapsilosis; assay: Kinetic characterization of the KERed; assay type: biochemical; details: partially purified enzyme; for Vmax: referred to 2-butanone
[4] = system: KERed from C. parapsilosis; assay: Screening of crude extract for ketoester reductase activity (photometric NAD(P)H decrease); assay type: biochemical, Candida parapsilosis; details: 8 mM ketoester, TEA-NaOH buffer pH 7, mU/mg protein; for NADH dependent specific activity: 0.2 mM NADH; for NADPH-dependent specific activity: 0.2 mM NADPH
Experimental: as §1, §2, §3, §4

[5] = system: KERed from C. parapsilosis; assay: Inhibition study of the KERed (influence of metal cations and reagents); assay type: biochemical, Candida parapsilosis; details: for Influence on KERed activity (in words): summary statements of the inhibition study
Description: For the following investigation, partially purified enzyme (after Q-sepharose chromatography, 67-times enrichment) was used. […]
5-oxohexanoic acid ethyl ester
TEA-NaOH-buffer, 0.1 M; pH 7.9
The influence of various metal cations and reagents upon the enzymatic activity was investigated in tests in which the test preparation described under example 3.B was used.

[6] = compound 0.1 mM, 35 mM 5-oxohexanoic acid ethyl ester, 0.2 mM NADH, pH 7.9
[7] = compound 1.0 mM, 35 mM 5-oxohexanoic acid ethyl ester, 0.2 mM NADH, pH 7.9

Compound: CCOC(=O)CC(C)=O [AEEE, acetoacetic acid ethyl ester]
NADH dependent specific activity [1]: 49.0 mU/mg
NADH dependent specific activity [2]: 153.0 mU/mg
NADH dependent specific activity (KERed from Y. cellobiosa): 103.1 mU/mg
NADPH-dependent specific activity (KERed from Y. cellobiosa): 5.0 mU/mg
Km [3]: 122 µM
Vmax [3]: 79%

NADH dependent specific activity [1]: 11.6 mU/mg
NADPH-dependent specific activity ([1]; 0.2 mM NADPH): 15.6 mU/mg
NADH dependent specific activity [2]: 3.0 mU/mg
NADH dependent specific activity [4]: 49.0 mU/mg
NADPH-dependent specific activity [4]: 25.0 mU/mg
NADH dependent specific activity (KERed from Y. cellobiosa): 20.3 mU/mg
Compound: CCCC(=O)CC(=O)OCC [BEEE, butyrylacetic acid ethy ester]
Km [3]: 1300 µM
Vmax [3]: 5%

Compound: CCO [Ethanol]
Residual Activity ([5]; Ethanol 5%): 30%
Km [3]: 3400 µM
Vmax [3]: 42%

NADH dependent specific activity [1]: 4.1 mU/mg
NADH dependent specific activity [2]: 87.1 mU/mg
NADH dependent specific activity [4]: 85.1 mU/mg
NADPH-dependent specific activity [4]: 1.3 mU/mg
NADH dependent specific activity (KERed from Y. cellobiosa): 41.1 mU/mg
NADPH-dependent specific activity (KERed from Y. cellobiosa): 4.0 mU/mg
Compound: CCOC(=O)CCC(C)=O [LSEE, levulinic acid ethyl ester]
Km [3]: 1730 µM
Vmax [3]: 12%

Compound: CC(=O)C=O [Methylglyoxal]
Residual Activity [5, 6]: 100%
Residual Activity [5, 7]: 34%

Compound: [Mg+2] [Mg^2+]
Residual Activity [5, 6]: 91%
Residual Activity [5, 7]: 82%

Compound: [Mn+2] [Mn^2+]
Residual Activity [5, 6]: 84%
Residual Activity [5, 7]: 80%

Compound: CCN1C(=O)C=CC1=O [N-ethylmaleimide]
Residual Activity [5, 6]: 70%
Residual Activity [5, 7]: 47%

Compound: [Ni+2] [Ni^2+]
Residual Activity [5, 6]: 10%
Residual Activity [5, 7]: 0%
Influence on KERed activity (in words) [5]: Rapid deactivation

Compound: [Pb+2] [Pb^2+]
Residual Activity [5, 6]: 0%
Residual Activity [5, 7]: 0%
Influence on KERed activity (in words) [5]: Rapid deactivation

Compound: Cl.NCCc1ccc(S(=O)(=O)F)cc1 [Pefabloc]
Residual Activity [5, 7]: 100%

Compound: [Sn+2] [Sn^2+]
Residual Activity [5, 6]: 73%
Residual Activity [5, 7]: 0%
Influence on KERed activity (in words) [5]: Rapid deactivation

Compound: [Zn+2] [Zn^2+]
Residual Activity [5, 6]: 24%
Residual Activity [5, 7]: 0%

Compound: c1cnc2c(c1)ccc1cccnc12 [o-Phenanthroline]
Residual Activity [5, 6]: 26%
Influence on KERed activity (in words) [5]: relatively strongly inhibited; also recorded: Strong inhibition

Compound: O=C(O)c1cc[c]([Hg+])cc1.[OH-] [p-Hydroxymercuribenzoate]
Residual Activity [5, 6]: 0%
Residual Activity [5, 7]: 0%
Influence on KERed activity (in words) [5]: Strong inhibition

Compound: Triton X-100
Residual Activity ([5]; Triton X-100 0.1%): 100%
